From ChEMBL document CHEMBL3639280, “2-Phenyl-1-[4-(2-Aminoethoxy)-Benzyl]-Indole and estrogen formulations” (2014)

Molecular target: T1, Estrogen receptor (Homo sapiens, UniProt P03372)
T1 sequence (P03372 whole entry): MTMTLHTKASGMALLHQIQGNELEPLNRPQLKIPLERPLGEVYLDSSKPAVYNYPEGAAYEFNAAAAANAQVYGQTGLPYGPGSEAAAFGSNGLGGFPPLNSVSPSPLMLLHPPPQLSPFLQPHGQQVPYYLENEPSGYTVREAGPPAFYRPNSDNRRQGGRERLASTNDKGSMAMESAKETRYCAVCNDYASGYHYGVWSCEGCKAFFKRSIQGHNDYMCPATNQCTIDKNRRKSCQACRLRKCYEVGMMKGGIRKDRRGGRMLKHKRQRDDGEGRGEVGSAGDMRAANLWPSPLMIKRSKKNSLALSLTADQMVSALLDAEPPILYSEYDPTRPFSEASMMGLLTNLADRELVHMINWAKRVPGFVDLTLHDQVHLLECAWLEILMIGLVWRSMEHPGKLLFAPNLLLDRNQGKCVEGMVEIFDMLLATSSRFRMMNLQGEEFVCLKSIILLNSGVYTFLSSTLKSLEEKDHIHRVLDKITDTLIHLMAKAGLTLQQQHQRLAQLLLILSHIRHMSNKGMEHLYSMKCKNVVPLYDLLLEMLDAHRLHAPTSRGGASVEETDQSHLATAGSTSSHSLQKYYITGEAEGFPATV
Assay: Binding Assay: The competition assay was performed in a 96-well plate (polystyrene*) which binds <2.0% of the total input [3H]-17beta-estradiol and each data point was gathered in triplicate. 100 uG/100 uL of the receptor preparation was aliquoted per well. A saturating dose of 2.5 nM [3H]17beta-estradiol+competitor (or buffer) in a 50 uL volume was added in the preliminary competition when 100x …

IC50: 1 nM
Structure (SMILES): Cc1c(-c2ccc(O)cc2)n(Cc2ccc(OCCN3CC4CCC3C4)cc2)c2ccc(O)cc12 (stereo unspecified)
